Test: Effect on blood triglyceride in rats after repeated oral administration
Assay type: in vivo
Conditions: male Wistar rats; orally once a day for 21 days; pitavastatin calcium 10 mg/kg and/or EPA-E 1000 mg/kg; blood taken after fasting for 18 hours since final administration; FIG. 1
Description: Male Wistar rats aged 6 weeks (Japan Medical Science Experimental Animal Co., Ltd.) were tested. They were fed in a room maintained in a bright and dark cycle (bright duration by a room light: 7:00 a.m. to 7:00 p.m.) at a temperature of 23±3° C. and a humidity of 55±15% through an experimental duration and allowed to freely take a chow (CE-2; Nippon Clear Co., Ltd.) and city water. Pitavastatin calcium was suspended in a 0.5 mass % aqueous solution of sodium carboxymethyl cellulose (Iwai Kagaku Yakuhin Co., Ltd.) and controlled so that a dose was 2 ml/kg. Pitavastatin calcium contained 9.43 mass % of water, and therefore an amount as 1.1 mass time much as the dose was weighed to correct the practical dose. The suspension was refrigerated (4° C.) in a shaded bottle, and it was prepared every 7 days. EPA-E was taken from Epadel capsule (Dainippon Seiyaku Co., Ltd.) in use, suspended in refined water and controlled so that a dose was 2 ml/kg. […] The differences of multiple groups between the control group and the drug-administered groups were analyzed using Dunnett's multiple comparison test, preceded by Bartlett's analysis of variance.

## O=C([O-])C[C@H](O)C[C@H](O)/C=C/c1c(C2CC2)nc2ccccc2c1-c1ccc(F)cc1.O=C([O-])C[C@H](O)C[C@H](O)/C=C/c1c(C2CC2)nc2ccccc2c1-c1ccc(F)cc1.[Ca+2] [pitavastatin calcium]
  triglyceride concentration in blood: tended to be lowered

Reference: patent US20060111437A1, “Hyperlipemia therapeutic agent” (Kowa Co., Ltd., priority 2004, published 2006)
